# Measurements: PMC9605374 (Marine Drugs, 2022)
# Legend:
# [1] = test system: PC3-DR; experiment: MTT assay, cell viability; type: cell-based, human
# Description: To examine the anticancer potential and selectivity of NB, we used a panel of six human prostate cancer cell lines, harboring different levels of treatment resistance to representatively reflect the heterogeneity of the disease. […] Additionally, four human noncancer cells lines were utilized in order to determine the selectivity of NB towards prostate cancer cells, i.e., prostate noncancer PNT2 and RWPE-1 cells, human embryonic kidney HEK 293T cells, and human fibroblasts MRC-9. The different cell lines were treated with NB and the cell viability was examined using MTT assay (Figure 1). The mean IC50 of NB and docetaxel (used as a reference substance) in noncancerous cell lines was divided by the mean IC50 in the prostate cancer cell lines to determine the selectivity index (SI).
# The MTT assay was used to monitor the effect of the drugs on cell viability in terms of metabolic activity, as previously reported. First, preincubation of the cells in 96-well plates (6 × 10^3 cells/well in 100 μL/well) was performed overnight in the correspondent culture medium. Next, the medium was exchanged for fresh medium containing the investigated compounds or a vehicle (100 μL/well). Cells were then incubated for 48 h, unless otherwise stated. Then, 10 μL/well of 3-(4,5-dimethylthiazol-2-yl)-2,5-diphenyltetrazolium bromide reagent (MTT, 5 mg/mL) were added. After 2–4 h of additional incubation the media was removed, and the plates were dried. Finally, 50 μL/well of DMSO were added to solve the formed formazan crystals produced by the metabolic active cells and Infinite F200PRO reader (TECAN, Männedorf, Switzerland) was used to measure the cell viability. The results were proceeded with a GraphPad Prism software v.9.1.1 (GraphPad Software, San Diego, CA, USA). Cells treated with the solvent of the drugs alone were used as a control (100% alive cells). The effect of the drugs on cell viability is represented as IC50.
# [2] = test system: PC3-DR cells; experiment: MTT assay with or without tariquidar pretreatment; type: cell-based, human; conditions: 48 h, tariquidar 50 nM 30 min pretreatment
# Protocol: Number of replicates n = 3. […] Viability was measured using an MTT assay. Number of replicates n = 3.
# As a next step, we investigated how NB interacts with p-gp. P-gp activity can be reduced in two distinct ways: (i) competitive inhibition through direct binding to the active pocket as the ligand itself; and (ii) allosteric/noncompetitive inhibition reducing the activity of a protein through binding to allosteric/regulatory sites or other means. […] Therefore, docetaxel binds to p-gp (while being excreted from the cell), competitively inhibiting p-gp-mediated calcein-AM excretion, which leads to calcein accumulation, resulting in more intense green fluoresce. To elucidate the mechanism of p-gp inhibition by NB (competitive vs. allosteric/noncompetitive inhibition), we co-treated PC3-DR cells with tariquidar (TQD), a selective noncompetitive p-gp inhibitor and NB, and examined the effect on cellular viability (Figure 8C). […]
# The MTT assay was used to monitor the effect of the drugs on cell viability in terms of metabolic activity, as previously reported. […] Finally, 50 μL/well of DMSO were added to solve the formed formazan crystals produced by the metabolic active cells and Infinite F200PRO reader (TECAN, Männedorf, Switzerland) was used to measure the cell viability. […]
# [3] = test system: 22Rv1 cells; experiment: Annexin-V-FITC/PI double staining, flow cytometry; type: cell-based, human
# Protocol: Figure 4 Investigation of the proapoptotic activity of NB. Flow cytometry analysis of 22Rv1 cells after 48 h of treatment. (A) Cell cycle and DNA fragmentation analysis. Treated cells were stained with PI and analyzed using a flow cytometry technique. Sub-G1 population was assumed to be apoptotic cells containing fragmentated DNA. (B) Analysis of phosphatidylserine externalization. Treated cells were double-stained with annexin-V-FITC and PI and analyzed using the flow cytometry technique. Cells of the low left quadrant (annexin-V-FITC^−/PI^−) were considered as alive cells. The Cell Quest Pro v.5.2.1 software (BD Bioscience, San Jose, CA, USA) was used to analyze and quantify the FACS data. Cells treated for 48 h with 10 µM of anisomycin were used as a positive control. Number of replicates n = 3. Statistical significance: * p < 0.05 (ANOVA). […]
# Externalization of phosphatidylserine is a distinct marker of apoptotic cell death that can be detected by flow cytometry using annexin-V-FITC and propidium iodide (PI) double staining. […] Cells were harvested utilizing trypsin, stained with annexin-V-FITC and propidium iodide, and analyzed using FACS Calibur (BD Bioscience, San Jose, CA, USA).
# [4] = test system: PC-3; parameters: method as in PMID 27355960; conditions: cited from earlier work
# [5] = test system: Artemia salina; parameters: method as in PMID 26039736; conditions: cited from earlier work
structure (smiles),measurement,setting,value
"COc1ccc(C2SSC34CC5(O)C(Cl)C=CC(O)C5ON3C(=O)C2N(C)C4=O)c(O)c1OC (stereo not shown) [NB, N-methylpretrichodermamide B]",IC50 in PC3-DR compared to the parental PC3 cells,[1]; 48 h,twofold lower
same,IC50,"[1]; Homo sapiens, PC3-DR, 48 h of treatment, mean ± SD",3.63 ± 1.03 µM
same,cytotoxicity when co-treated with TQD,[2],increased
same,phosphatidylserine externalization,"[3]; 22Rv1, 48 h",caused DNA fragmentation and phosphatidylserine externalization
same,effect of pretreatment with pan-caspase inhibitor zVAD on drug-induced cell death,"[3]; 22Rv1, zVAD 100 µM 1 h pretreatment, 48 h",could not significantly inhibit
same,IC50,[4],5.11 µM
same,LD50,[5],4.8 µM
